From patent publication US11382956B2, “Amylin analogues” (Zealand Pharma A/S, priority 2016, dated 2022)
Numbered stars: 1 amine (or outer) side, 2 acyl side, 3 side chain; on linkers, the order of the positions; unused ones are H or OH. Bridge positions count the residues as written; N and C are the ends. Square brackets hold non-standard residues; d marks the D form. Peptide text beside a SMILES is read from it. * marks the point of attachment. C20 diacid = O=C(O)CCCCCCCCCCCCCCCCCCC(=O)*; γGlu = O=C(O)[C@H](CCC(=O)[*:2])N[*:1]; Hyp = O=C(O)[C@@H]1C[C@@H](O)CN1; NMeI = CC[C@H](C)[C@H](NC)C(=O)O; Aad = N[C@@H](CCCC(=O)O)C(=O)O; Orn = NCCC[C@H](N)C(=O)O; Sar = CNCC(=O)O

How the values were obtained:
[1] = biological target: T1, recombinant human calcitonin receptor (hCT-R) (Homo sapiens, UniProt P30988); assay: hCT-R cAMP assay (AlphaScreen) in 1321N1 cells; assay type: cell-based; settings: cAMP formation, 45 min stimulation
T1 construct: host or cells: human astrocytoma cell line 1321N1
T1 sequence (P30988 25-474): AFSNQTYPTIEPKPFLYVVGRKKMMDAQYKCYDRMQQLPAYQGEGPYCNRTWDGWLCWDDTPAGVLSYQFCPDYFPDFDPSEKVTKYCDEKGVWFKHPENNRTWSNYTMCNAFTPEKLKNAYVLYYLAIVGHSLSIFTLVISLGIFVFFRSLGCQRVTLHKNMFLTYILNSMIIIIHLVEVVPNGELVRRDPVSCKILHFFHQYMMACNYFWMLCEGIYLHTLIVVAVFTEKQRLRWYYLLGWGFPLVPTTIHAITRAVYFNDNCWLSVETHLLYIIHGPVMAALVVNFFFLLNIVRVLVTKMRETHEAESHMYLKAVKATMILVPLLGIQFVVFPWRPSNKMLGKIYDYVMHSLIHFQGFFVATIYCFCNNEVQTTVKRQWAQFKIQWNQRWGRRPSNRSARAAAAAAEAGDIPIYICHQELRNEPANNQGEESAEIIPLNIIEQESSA
Procedure, shortened: (§1)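 1321N1 astrocytoma cells expressing recombinant human calcitonin receptor alone or with RAMP3 (AMY3) stimulated 45 min at room temperature with peptide in IBMX-containing buffer. cAMP quantified by AlphaScreen after 1 h bead incubation; EC50 fitted from at least 7 concentrations.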

[2] = biological target: T2, recombinant human amylin 3 receptor (hAMYR3) (Homo sapiens, UniProt O60896+P30988); assay: hAMYR3 cAMP assay (AlphaScreen) in 1321N1 cells; assay type: cell-based; settings: cAMP formation, 45 min stimulation
T2 construct: host or cells: human astrocytoma cell line 1321N1
T2 sequence (P30988 25-474): T1 sequence (P30988 25-474)
T2 sequence (O60896 24-148 partner): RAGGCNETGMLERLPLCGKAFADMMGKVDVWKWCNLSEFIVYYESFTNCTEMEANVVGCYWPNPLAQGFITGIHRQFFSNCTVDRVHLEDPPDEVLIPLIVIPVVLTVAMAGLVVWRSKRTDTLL
Procedure, shortened: as §1

[3] = Assessment of chemical stability in 40 mM buffers at 40° C. (RP-HPLC); assay type: physicochemical; settings: 1 mg/mL; for % degradation after 14 days at 40° C. pH4 acetate: acetate buffer pH 4, 14 days; for % degradation after 14 days at 40° C. pH6 phosphate: phosphate buffer pH 6, 14 days
Protocol: Samples of each test peptide were dissolved in acetate buffer pH 4 and phosphate buffer pH 6 and 7 (all buffer 40 mM). The final peptide concentration was 1 mg/mL. Samples were placed in glass vials and incubated at 40° C. The samples were analyzed by RP-HPLC on a C8 column with gradient elution using a trifluoroacetic acid/acetonitrile/water eluent system. The area-percentage (area-%) of the main peak was determined by UV spectroscopy at 220 nm at each sampling time point.
The % degradation was calculated by subtracting the […].
The results of the chemical stability assessment after 3 days of incubation time are summarized as % degradation in Table 1 (below).
The results of the chemical stability assessment after 14 days of incubation time are summarized as % degradation in Table 2 (below).

[4] = Assessment of physical stability: fibril formation by Thioflavin T fluorescence; assay type: physicochemical; design: key: FND = fibrillation not detected; FD = fibrillation detected; settings: 1 mg/mL peptide
Protocol: Solutions containing (i) 1 mg/mL of test peptide, 40 μM ThT and 50 mM phosphate (Ph) buffer (pH 7.0), (ii) 1 mg/mL of test peptide, 40 μM ThT and 50 mM histidine (His) buffer (pH 7.0), and (iii) 1 mg/mL of test peptide, 40 μM ThT and 50 mM acetate (Ac) buffer (pH 4.0), were loaded in a 96-well black fluorescence plate (clear bottom) in triplicate. Data were collected at fixed intervals of 10 min, each preceded by 300 s of automixing (agitation), over a period of 96 hours at 40° C. Physical stability is determined by measuring the fluorescence intensity over time. A significant increase in intensity is rated as fibrillation detected (FD).

EC50 [1]	EC50 [2]	% degradation after 14 days at 40° C. pH4 acetate [3]	% degradation after 14 days at 40° C. pH6 phosphate [3]	% degradation after 14 days at 40° C. pH7 phosphate ([3]; phosphate buffer pH 7, 14 days)	Fibrillation (in buffer) pH4 acetate ([4]; 50 mM acetate buffer pH 4.0, 96 hours at 40° C.)	Fibrillation (in buffer) pH7 histidine ([4]; 50 mM histidine buffer pH 7.0, 96 hours at 40° C.)	Fibrillation (in buffer) pH7 phosphate ([4]; 50 mM phosphate buffer pH 7.0, 96 hours at 40° C.)	SMILES
0.386 nM	0.108 nM	2.2%	<1%	2.6%				CC[C@H](C)[C@@H](C(=O)N[C@@H](CC(C)C)C(=O)N[C@@H](CO)C(=O)N[C@@H](CO)C(=O)N[C@H](C(=O)N[C@@H](CCC(=O)O)C(=O)N[C@H](C(=O)NCC(=O)N[C@@H](CO)C(=O)N[C@@H](CC(N)=O)C(=O)N[C@H](C(=O)N1C[C@H](O)C[C@H]1C(N)=O)[C@@H](C)O)C(C)C)[C@@H](C)O)N(C)C(=O)[C@H](C)NC(=O)CN(C)C(=O)[C@H](Cc1ccccc1)NC(=O)[C@H](CO)NC(=O)[C@H](CO)NC(=O)[C@H](CCCNC(=N)N)NC(=O)[C@H](CCC(N)=O)NC(=O)[C@H](CC(C)C)NC(=O)[C@H](Cc1ccccc1)NC(=O)[C@H](Cc1c[nH]cn1)NC(=O)[C@H](C)NC(=O)[C@H](CC(C)C)NC(=O)[C@H](CCCNC(=N)N)NC(=O)[C@H](CCC(=O)O)NC(=O)[C@@H](NC(=O)[C@H](C)NC(=O)[C@@H]1CCCCNC(=O)C[C@H](NC(=O)[C@H](CCCNC(=N)N)NC(=O)CC[C@H](NC(=O)CCCCCCCCCCCCCCCCCCC(=O)O)C(=O)O)C(=O)NCC(=O)N[C@@H]([C@@H](C)O)C(=O)N[C@@H](C)C(=O)N[C@@H](CO)C(=O)N1)[C@@H](C)O [Compound 14, [19CD]-isoGlu-RD()GTASK()ATERLAHFLQRSSF-Gly(Me)-A-Ile(Me)-LSSTEVGSNT-Hyp-NH2] ({C20 diacid-γGlu}-RDGTASKATERLAHFLQRSSF[Sar]A[NMeI]LSSTEVGSNT[Hyp]-NH2; lactam 2-7)
0.021 nM	0.007 nM				FD	FD	FD	CC[C@H](C)[C@@H](C(=O)N[C@@H](CC(C)C)C(=O)N[C@@H](CO)C(=O)N[C@@H](CO)C(=O)N[C@H](C(=O)N[C@@H](CCC(=O)O)C(=O)N[C@H](C(=O)NCC(=O)N[C@@H](CO)C(=O)N[C@@H](CC(N)=O)C(=O)N[C@H](C(=O)N1C[C@H](O)C[C@H]1C(N)=O)[C@@H](C)O)C(C)C)[C@@H](C)O)N(C)C(=O)[C@H](C)NC(=O)CN(C)C(=O)[C@H](Cc1ccccc1)NC(=O)[C@H](CO)NC(=O)[C@H](CO)NC(=O)[C@H](CCCNC(=N)N)NC(=O)[C@H](CCC(N)=O)NC(=O)[C@H](CC(C)C)NC(=O)[C@H](Cc1ccccc1)NC(=O)[C@H](CC(N)=O)NC(=O)[C@H](C)NC(=O)[C@H](CC(C)C)NC(=O)[C@H](CCCNC(=N)N)NC(=O)[C@H](CCC(N)=O)NC(=O)[C@@H](NC(=O)[C@H](C)NC(=O)[C@@H]1CCCCNC(=O)C[C@H](NC(=O)[C@H](CCCCN)NC(=O)CC[C@H](NC(=O)CCCCCCCCCCCCCCCCCCC(=O)O)C(=O)O)C(=O)NCC(=O)N[C@@H]([C@@H](C)O)C(=O)N[C@@H](C)C(=O)N[C@@H]([C@@H](C)O)C(=O)N1)[C@@H](C)O [Compound 43, [19CD]-isoGlu-KD()GTATK()ATQRLANFLQRSSF-Gly(Me)-A-Ile(Me)-LSSTEVGSNT-Hyp-NH2] ({C20 diacid-γGlu}-KDGTATKATQRLANFLQRSSF[Sar]A[NMeI]LSSTEVGSNT[Hyp]-NH2; lactam 2-7)
20.3 nM	17.1 nM							CC[C@H](C)[C@@H](C(=O)N1CCC[C@H]1C(=O)N[C@@H](CO)C(=O)N[C@@H](CO)C(=O)N[C@H](C(=O)N[C@@H](CCC(=O)O)C(=O)N[C@H](C(=O)NCC(=O)N[C@@H](CO)C(=O)N[C@@H](CC(N)=O)C(=O)N[C@H](C(=O)N1C[C@H](O)C[C@H]1C(N)=O)[C@@H](C)O)C(C)C)[C@@H](C)O)N(C)C(=O)[C@H](C)NC(=O)CN(C)C(=O)[C@H](Cc1ccccc1)NC(=O)[C@H](CO)NC(=O)[C@H](CO)NC(=O)[C@H](CCCNC(=N)N)NC(=O)[C@H](CCC(N)=O)NC(=O)[C@H](CC(C)C)NC(=O)[C@H](Cc1ccccc1)NC(=O)[C@H](Cc1c[nH]cn1)NC(=O)[C@H](C)NC(=O)[C@H](CC(C)C)NC(=O)[C@H](CCCNC(=N)N)NC(=O)[C@H](CCC(=O)O)NC(=O)[C@@H](NC(=O)[C@H](C)NC(=O)[C@H](CCCN)NC(=O)[C@@H](NC(=O)[C@H](C)NC(=O)[C@@H](NC(=O)CNC(=O)[C@H](CC(=O)O)NC(=O)[C@H](CCCNC(=N)N)NC(=O)CC[C@H](NC(=O)CCCCCCCCCCCCCCCCCCC(=O)O)C(=O)O)[C@@H](C)O)[C@@H](C)O)[C@@H](C)O [Ref. 1, [19CD]-isoGlu-RDGTAT-Orn-ATERLAHFLQRSSF-Sar-A-Ile(Me)-PSSTEVGSNT-Hyp-NH2, reference compound] ({C20 diacid-γGlu}-RDGTAT[Orn]ATERLAHFLQRSSF[Sar]A[NMeI]PSSTEVGSNT[Hyp]-NH2)
0.019 nM	0.003 nM	<1%	4.6%					CC[C@H](C)[C@@H](C(=O)N[C@@H](CC(C)C)C(=O)N[C@@H](CO)C(=O)N[C@@H](CO)C(=O)N[C@H](C(=O)N[C@@H](CCC(=O)O)C(=O)N[C@H](C(=O)NCC(=O)N[C@@H](CO)C(=O)N[C@@H](CC(N)=O)C(=O)N[C@H](C(=O)N1C[C@H](O)C[C@H]1C(N)=O)[C@@H](C)O)C(C)C)[C@@H](C)O)N(C)C(=O)[C@H](C)NC(=O)CN(C)C(=O)[C@H](Cc1ccccc1)NC(=O)[C@H](CO)NC(=O)[C@H](CO)NC(=O)[C@H](CCCNC(=N)N)NC(=O)[C@H](CCC(N)=O)NC(=O)[C@H](CC(C)C)NC(=O)[C@H](Cc1ccccc1)NC(=O)[C@H](Cc1c[nH]cn1)NC(=O)[C@H](C)NC(=O)[C@H](CC(C)C)NC(=O)[C@H](CCCNC(=N)N)NC(=O)[C@H](CCC(=O)O)NC(=O)[C@@H](NC(=O)[C@H](C)NC(=O)[C@@H]1CSSC[C@H](NC(=O)[C@H](CCCNC(=N)N)NC(=O)CC[C@H](NC(=O)CCCCCCCCCCCCCCCCCCC(=O)O)C(=O)O)C(=O)NCC(=O)N[C@@H]([C@@H](C)O)C(=O)N[C@@H](C)C(=O)N[C@@H]([C@@H](C)O)C(=O)N1)[C@@H](C)O [Ref. 2, [19CD]-isoGlu-RC()GTATC()ATERLAHFLQRSSF-Sar-A-Ile(Me)-LSSTEVGSNT-Hyp-NH2, reference compound] ({C20 diacid-γGlu}-RCGTATCATERLAHFLQRSSF[Sar]A[NMeI]LSSTEVGSNT[Hyp]-NH2; disulfide 2-7)
18.2 nM	13.2 nM							CC[C@H](C)[C@@H](C(=O)N[C@@H](CC(C)C)C(=O)N[C@@H](CO)C(=O)N[C@@H](CO)C(=O)N[C@H](C(=O)N[C@@H](CCC(=O)O)C(=O)N[C@H](C(=O)NCC(=O)N[C@@H](CO)C(=O)N[C@@H](CC(N)=O)C(=O)N[C@H](C(=O)N1C[C@H](O)C[C@H]1C(N)=O)[C@@H](C)O)C(C)C)[C@@H](C)O)N(C)C(=O)[C@H](C)NC(=O)CN(C)C(=O)[C@H](Cc1ccccc1)NC(=O)[C@H](CO)NC(=O)[C@H](CO)NC(=O)[C@H](CCCNC(=N)N)NC(=O)[C@H](CCC(N)=O)NC(=O)[C@H](CC(C)C)NC(=O)[C@H](Cc1ccccc1)NC(=O)[C@H](CCCC(=O)O)NC(=O)[C@H](C)NC(=O)[C@H](CC(C)C)NC(=O)[C@H](CCCNC(=N)N)NC(=O)[C@H](CCC(=O)O)NC(=O)[C@@H](NC(=O)[C@H](C)NC(=O)[C@H](CCCN)NC(=O)[C@@H](NC(=O)[C@H](C)NC(=O)[C@@H](NC(=O)CNC(=O)[C@H](CC(=O)O)NC(=O)[C@H](CCCNC(=N)N)NC(=O)CC[C@H](NC(=O)CCCCCCCCCCCCCCCCCCC(=O)O)C(=O)O)[C@@H](C)O)[C@@H](C)O)[C@@H](C)O [Ref. 3, [19CD]-isoGlu-RDGTAT-Orn-ATERLA-Aad-FLQRSSF-Sar-A-Ile(Me)-LSSTEVGSNT-Hyp-NH2, reference compound] ({C20 diacid-γGlu}-RDGTAT[Orn]ATERLA[Aad]FLQRSSF[Sar]A[NMeI]LSSTEVGSNT[Hyp]-NH2)
